Laboratory results taken from US20240399142A1, “Methods Of Using Alternating Electric Fields And Checkpoint Inhibitors” (NOVOCURE GMBH, priority 2023, published 2024).

Assay: LUNAR study safety: adverse events per CTCAE version 4.03, safety population
Type: in vivo, human
[1] = Grade 4, nervous system disorders
[2] = Grade 4, renal and urinary disorders
[3] = Grade 4, respiratory, thoracic, and mediastinal disorders
[4] = Grade 4, skin and subcutaneous tissue disorders

Description: Safety and treatment data were compiled from all patients who received any study therapy and were analyzed according to the actual treatment received. Analyses were performed using SAS software, version 9.4 (SAS Institute).

CC(=O)O[C@@]12CO[C@@H]1C[C@H](O)[C@@]1(C)C(=O)[C@H](O)C3=C(C)[C@@H](OC(=O)[C@H](O)[C@@H](NC(=O)OC(C)(C)C)c4ccccc4)C[C@@](O)([C@@H](OC(=O)c4ccccc4)[C@H]21)C3(C)C [Docetaxel, docetaxel]
4 (5.9) no. (%): Neutrophil count decreased (Grade 4) | Any adverse event (Grade 5)
10 (14.7) no. (%): Neutropenia (Grade 4)
2 (2.9) no. (%): White blood cell count decreased (Grade 4) | Bronchial obstruction [3]
0 no. (%): Metastases to bone (Grade 4) | Metastases to central nervous system (Grade 4) | Metastases to meninges (Grade 4) | Metastases to skin (Grade 4) | Mouth ulceration (Grade 4) | Mucosal inflammation (Grade 4) | Multiple organ dysfunction syndrome (Grade 4) | Muscular weakness (Grade 4) | Myalgia (Grade 4) | Myocardial infarction (Grade 4) | Nausea (Grade 4) | Neck pain (Grade 4) | Neuropathy peripheral (Grade 4) | Non-cardiac chest pain (Grade 4) | Oedema peripheral (Grade 4) | Oral candidiasis (Grade 4) | Pancreatic failure (Grade 4) | Pancreatitis (Grade 4) | Pericardial effusion (Grade 4) | Peripheral sensory (Grade 4) | Platelet count decreased (Grade 4) | Pneumonia (Grade 4) | Pneumonia pseudomonal (Grade 4) | Pneumonia staphylococcal (Grade 4) | Pyelonephritis (Grade 4) | Pyopneumothorax (Grade 4) | Pyrexia (Grade 4) | Refeeding syndrome (Grade 4) | Respiratory tract infection (Grade 4) | Right ventricular failure (Grade 4) | Septic shock (Grade 4) | Skin infection (Grade 4) | Stomatitis (Grade 4) | Subileus (Grade 4) | Thyroiditis subacute (Grade 4) | Tumor pain (Grade 4) | Upper respiratory tract infection (Grade 4) | Urinary tract infection (Grade 4) | Urosepsis (Grade 4) | Vomiting (Grade 4) | Weight decreased (Grade 4) | Cauda equina syndrome [1] | Dysarthria [1] | Embolic stroke [1] | Hemiparesis [1] | Motor dysfunction [1] | Nervous system disorder [1] | Neurologic neglect syndrome [1] | Neurotoxicity [1] | Peripheral sensorimotor neuropathy [1] | Quadriparesis [1] | Seizure [1] | Syncope [1] | Vocal cord paralysis [1] | Anxiety (Grade 4, psychiatric disorders) | Confusional state (Grade 4, psychiatric disorders) | Acute kidney injury [2] | Urinary retention [2] | Acute respiratory failure [3] | Atelectasis [3] | Bronchopleural fistula [3] | Chronic obstructive pulmonary disease [3] | Cough [3] | Esophago-bronchial fistula [3] | Hemoptysis [3] | Hypoxia [3] | Interstitial lung disease [3] | Pleural effusion [3] | Pneumonia aspiration [3] | Pneumonitis [3] | Pulmonary embolism [3] | Pulmonary hemorrhage [3] | Respiratory failure [3] | Alopecia [4] | Dermatitis exfoliative [4] | Pruritus [4] | Rash [4] | Rash erythematous [4] | Rash maculopapular [4] | Skin erosion [4] | Skin reaction [4] | Skin toxicity [4] | Deep vein thrombosis (Grade 4, vascular disorders) | Embolism (Grade 4, vascular disorders) | Hypertension (Grade 4, vascular disorders) | Peripheral arterial occlusive disease (Grade 4, vascular disorders) | Vena cava embolism (Grade 4, vascular disorders) | Acute myocardial infarction (Grade 5) | Alanine aminotransferase increased (Grade 5) | Anemia (Grade 5) | Anemia macrocytic (Grade 5) | Arthralgia (Grade 5) | Ascites (Grade 5) | Aspergillus infection (Grade 5) | Asthenia (Grade 5) | Atrial tachycardia (Grade 5) | Autoimmune colitis (Grade 5) | Back pain (Grade 5) | Blood bilirubin increased (Grade 5) | Bone pain (Grade 5) | Bronchiolitis (Grade 5) | Bronchitis (Grade 5) | C-reactive protein increased (Grade 5) | COVID-19 pneumonia (Grade 5) | Cancer pain (Grade 5) | Cardiac failure congestive (Grade 5) | Cardiac tamponade (Grade 5) | Cardiac ventricular thrombosis (Grade 5) | Cataract (Grade 5) | Chest pain (Grade 5) | Cholangitis (Grade 5) | Cholecystitis (Grade 5) | Cholelithiasis (Grade 5) | Clostridium bacteremia (Grade 5) | Coronary artery disease (Grade 5) | Decreased appetite (Grade 5) | Dehydration (Grade 5) | Diarrhea (Grade 5) | Diverticulitis (Grade 5) | Drug hypersensitivity (Grade 5) | Encephalitis (Grade 5) | Esophagitis (Grade 5)
1 (1.5) no. (%): Sepsis (Grade 4) | Thrombocytopenia (Grade 4) | Brain oedema [1] | Mental status changes (Grade 4, psychiatric disorders) | Dyspnoea [3] | Jugular vein thrombosis (Grade 4, vascular disorders) | Euthanasia (Grade 5)
